In patent US20100056482A1, “Calixarene Derivatives as Anticancer Agent” (CENTRE NATIONAL DE LA RECHERCHE SCIENTIFIQUE-CNRS, priority 2006, published 2010) one finds IC50 data, which are given here for 2 compounds.

What all share (assay type): cell-based
In assay [1] the test system is WBC (leucocytes), non tumoral cells. The experiment in a line: MTS cell viability, WBC (Example 2). As to conditions: Leucocyte, MTS on 3rd day. The protocol:
(§1) The cells (0.2×10^6/ml) were incubated in a sterile fashion in 100 μl of culture medium (RPMI-1640 supplemented with 10% foetal calf serum, penicillin, streptomycin and amphotericin B) at day DO with variable quantities (from […]) of C4diP, tBuC4diP or C8C4diP at 37° C. and 5% CO2 in a water-saturated atmosphere. On the 3rd day, 20 μl of MTS (non radioactive cell proliferation test (Promega Cat. #: G 3580) are added to the previous 100 μl and then a spectrophotometric reading is carried out at 490 nm after 2 hours of incubation against reagent blanks.
(§2) The cell lines used are as follows: • keratinocytes • WBC: leucocytes • MEWO: human skin melanoma • jurkat: T-cell acute lymphoblastic leukaemia. Cells of the T-lymphocyte type. • HL-60: promyelocytary acute leukaemia. Cells of the promyeloblast type. • Huh7: human hepatoma • Hep-G2: hepatocellular carcinoma.
(§3) The anticancerous effect of C4diP, tBuC4diP and C8C4diP is evaluated by measuring cell viability as a function of variable quantities of these compounds.
(§4) In order to determine the anticancer effect of C4diP, tBuC4diP and C8C4diP on a particular tumour cell culture, the IC50 was calculated.

Assay [2] deals with keratinocytes, non tumoral cells. The experiment in a line: MTS cell viability, keratinocytes (Example 2). As to conditions: Keratinocyte, Keratonicytes, MTS on 3rd day. The procedure: as §1, §2, §3, §4
In assay [3] the test system is Hep-G2 hepatocellular carcinoma cells. The assay is described as follows: MTS cell viability, HepG2 (Example 2). The following applies: Homo sapiens; HepG2, MTS on 3rd day. The protocol: as §1, §2, §3, §4
The test system of assay [4] is HL-60 promyelocytary acute leukaemia cells. The assay is described as follows: MTS cell viability, HL-60 (Example 2). As to conditions: Homo sapiens; HL-60, MTS on 3rd day. The protocol: as §1, §2, §3, §4
Assay [5] has as its system Huh7 human hepatoma cells. The experiment in a line: MTS cell viability, Huh7 (Example 2). As to conditions: Huh 7, MTS on 3rd day. The protocol: as §1, §2, §3, §4
Assay [6] concerns jurkat T-cell acute lymphoblastic leukaemia cells. The assay is described as follows: MTS cell viability, Jurkat (Example 2). As to conditions: Homo sapiens, MTS on 3rd day. The protocol:
as §1, §2, §3, §4

The test system of assay [7] is MEWO human skin melanoma cells. The experiment in a line: MTS cell viability, Mewo (Example 2). The following applies: MTS on 3rd day. The procedure: as §1, §2, §3, §4
Assay [8] concerns human PBMC (peripheral blood mononuclear cells). The experiment in a line: MTS cell viability, human PBMC primary culture (Example 3). The following applies: primary culture of human PBMC (WBC, healthy lymphocytes), read-out: IC50 (mean concentration for 50% mortality). The protocol:
The cells (0.2×10^6/ml) were incubated in a sterile fashion in 100 μl of culture medium (RPMI-1640 supplemented with 10% foetal calf serum, penicillin, streptomycin and amphotericin B) at day DO with variable quantities (from […]) of C4diP at 37° C. and 5% CO2 in a water-saturated atmosphere. At the 4th day, 20 μl of MTS (non-radioactive cell proliferation test (Promega Cat. #: G 3580) is added to the previous 100 μl and then a spectrophotometric reading is carried out at 490 nm after 2 hours of incubation against reagent blanks.
In order to determine the anticancer effect of C4diP on a particular culture of tumour cells, the IC50 was calculated.
The protocol used is that described previously in example 1. When vinblastin is used in the culture medium, it replaces C4diP.

Consider `CCCCCCCC(=O)/C(C)=C/C(Cc1cc(C(=O)CCCCCCC)cc(Cc2cc(C(=O)CCCCCCC)cc(Cc3cc(C(=O)CCCCCCC)cc(CC)c3OP(=O)(O)O)c2O)c1OP(=O)(O)O)=C(\C)O` [C8C4diP, para-octanoyl-calyx[4]arene dihydroxyphosphonic acid], for which the IC50 in assay [1] was determined as 95 µM; in assay [2] it was 46 µM; in assay [3], 1000 µM; in assay [4] it was 1000 µM; in assay [5], 270 µM; in assay [6], 113 µM. Further, the IC50 in assay [7] turned out to be 1000 µM.
As to `CC[C@]1(O)C[C@@H]2CN(CCc3c([nH]c4ccccc34)[C@@](C(=O)OC)(c3cc4c(cc3OC)N(C)[C@H]3[C@@](O)(C(=O)OC)[C@H](OC(C)=O)[C@]5(CC)C=CCN6CC[C@]43[C@@H]65)C2)C1` [vinblastin, reference compound], the IC50 in assay [8] was 0.005 µM.
